Test results taken from patent publication US9034793B2, “Use of ribose to enhance plant growth” (Bioenergy, Inc., priority 2002, dated 2015).
Values joined by “and” are separate entries in the source; they are usually repeats but may differ in a detail not shown here. Equal entries are not always repeated.

How the values were obtained:
[1] = tested on: cut flower; details: storage solution containing the compound; cited from earlier work
[2] = tested on: bean seeds; test: Root growth assessment (Example 3); type: in vivo; details: for Root appearance: 2 weeks, compared with water treated roots
Text: Identical sized pots, containing the same consistency of soil media, were used in assessing root growth. Bean seeds of similar size were chosen. One seed was planted in each pot. The depth in the soil for each seed that was planted was the same. Paired pots (total of 3 pairs, 6 pots), each containing one bean seed, were used. One pair of pots received 2 teaspoons of water every other day (Group A). The second pair of pots received a low Ribose solution (1 teaspoon of D-ribose in 16 oz of water), each pot received 2 teaspoons of this low dose of Ribose every other day (Group B). The final pair of pots received a higher dose of Ribose (1 teaspoon of D-ribose in 4 oz of water), each pot received 2 teaspoons of this higher dose of Ribose every other day (Group C). In each pair of pots, roots were examined at week 1 and 2, by removing the roots of one pot only in each group at the designed test time point with soil emersion in a bucket of water. At week 2 all remaining pots had shoots emerging from the top soil. The roots were weighed and measured for length. […] This discrepancy expanded when the roots were analyzed at 2 weeks. […] The weight of the roots treated with high dose Ribose were appreciably less in weight than both the water and low dose Ribose treated groups.

[3] = tested on: plants grown from seed (5 seeds per plot); test: Plant feeding with ribose for growth (Table 1); type: in vivo, Hosta (H. plantaginea grandiflora); details: for Unsprouted: of 5 seeds per plot
Text: (§1) Hosta (H. plantaginea grandiflora) plants were transplanted. The protocol was designed such that half of the plants were supplied with water alone and half of the plants received a ribose based solution, in which powdered D-ribose was mixed in water. All plants were transplanted at the same level in the soil and in like soil. All plants were watered at the same times of day, mid-morning and at dusk. Each plant received the same amount of water/watering (½ liter water at each watering). Results of plant growth data following transplantation are graphically depicted in FIGS. 1 and 2. [table]

[4] = tested on: beans (B); test: Transplants in garden, growth and hardening after transplantation: beans; type: in vivo, bean
Text: as §1

[5] = tested on: kohlrabi (K); test: Transplants in garden, growth and hardening after transplantation: kohlrabi; type: in vivo
Text: as §1

[6] = tested on: bean seeds; test: Fertilization with ribose combined with nitrogen, phosphorus, potassium; type: in vivo; details: ribose combined with the fertilizers nitrogen, phosphorus, and potassium
Experimental: D-ribose plus nitrogen, nitrogen alone, or placebo was administered to bean seeds and measurements of growth and yield was made as in Example 2. D-ribose plus phosphorus, phosphorus alone, or placebo was administered to bean seeds and measurements of growth and yield was made as in Example 2. D-ribose plus potassium, potassium alone, or placebo was administered to bean seeds and measurements of growth and yield was made as in Example 2. D-ribose plus the combination, the combination alone, or placebo was administered to bean seeds and measurements of growth and yield was made as in Example 2.

[7] = Week 1 following seed implantation
[8] = Week 2, plants cut off above the soil, just the roots weighed
[9] = 29-Sep, first measure after transplant

SMILES | Root Length [2, 7] | Root Weight [2, 7] | Root Length ([2]; Week 2) | Root Weight [2, 8] | Plant measures, Mean ([3]; 23 June, 5 seeds per plot) | Unsprouted ([3]; 23 June) | #Plants/blossom ([3]; Measured 8 July) | Plant measures, Mean ([3]; Measured 8 July) | Bean measure to the Y ([4]; 1-Nov, after transplant) | Bean overall height ([4]; 1-Nov, after transplant) | Bean measure to the Y ([4]; 9-Sep, before moving) | Bean measure to the Y ([4]; 19-Oct, after transplant) | Bean measure to the Y [4, 9] | Kohlrabi plant measure ([5]; 1-Nov, after transplant) | other results
CCSC[C@@H](O)[C@@H](O)[C@@H](O)C=O [5-deoxy-5-ethylthio-D-ribose] |  |  |  |  |  |  |  |  |  |  |  |  |  |  | Bloom life of a cut flower [1]: extend bloom life
O=C[C@H](O)[C@H](O)[C@H](O)CO [High Ribose, D-ribose] | 13.8 cm | 1.46 gm | 14.7 cm | 0.26 gm |  |  |  |  |  |  |  |  |  |  | Root appearance ([2]; listed as high dose Ribose): thick; Root Weight ([2]; Week 2, plants cut off above the soil, just the roots weighed, listed as high dose Ribose): less in weight than both the low dose Ribose and water groups
O=C[C@H](O)[C@H](O)[C@H](O)CO [Low Ribose, D-ribose] | 13.4 cm | 1.55 gm | 16.0 cm | 1.01 gm |  |  |  |  |  |  |  |  |  |  | Root appearance ([2]; listed as low dose Ribose): thicker, shorter roots
O=C[C@H](O)[C@H](O)[C@H](O)CO [R1, ribose] |  |  |  |  | 1.65 inches | 2 | 1 | 2.9 inches | 17 cm and 12 cm | 33.5 cm and 18 cm | 9 cm and 10 cm and 6 cm | 16 cm and 10 cm | 14 cm and 9.5 cm | 11 and 15.5 and 9.8 and 18 | 
O=C[C@H](O)[C@H](O)[C@H](O)CO [R4, ribose] |  |  |  |  | 8.45 inches | 0 | 5 | 11.1 inches | 10 cm and 13 cm | 27 cm and 30 cm | 6 cm and 8 cm | 8.75 cm and 12 cm | 7.5 cm and 10.5 cm | 16.5 and 19 and 22 and 21 and 15 | Plant measures, measured to the Y, single plants ([3]; 23 June, planted 4 June, 2 tablespoons every other day (3x per week)): 6.5 inches and 8 inches and 8.25 inches and 9.5 inches and 10 inches; Plant measures, measured to the Y, single plants ([3]; Measured 8 July): 8.75 inches and 10 inches and 10.5 inches and 11.75 inches and 12 inches; Bean overall height ([4]; 9-Sep, before moving): 21 cm and 22 cm; Bean overall height ([4]; 19-Oct, after transplant): 26 cm and 28 cm; Bean overall height [4, 9]: 24 cm and 26 cm; Kohlrabi plant measure ([5]; 9-Sep, before moving): 12 and 13 and 17 and 11; Kohlrabi plant measure ([5]; 19-Oct, after transplant): 15 and 18 and 19.5 and 20 and 14.5; Kohlrabi plant measure [5, 9]: 14 and 16 and 19 and 19.5 and 13
O=C[C@H](O)[C@H](O)[C@H](O)CO [Ribose, D-ribose] | slightly shorter in length | heavier |  |  |  |  |  |  |  |  |  |  |  |  | Improvement over solutions of ribose alone [6]: slight incremental improvements
